Measurements reported in US6706740B2, “Fungicidal heterocyclic aromatic amides and their compositions, methods of use and preparation” (Dow AgroSciences LLC, priority 1999, dated 2004).
Where two headings read alike, the source gives them in different places.

What was measured:
[1] = tested on: Leptosphaeria nodorum—LEPTNO; experiment: Glume Blotch of Wheat, in vivo whole plant, 24 Hour Protectant; settings: control of fungal infection vs untreated plants; for pest or weed control at 100 ppm: Leptosphaeria, read-out: LEPTNO in vivo 1 Day Protectant
[2] = tested on: Stagonospora nodorum (Leptosphaeria nodorum—LEPTNO); experiment: In vitro fungal growth inhibition, Stagonospora nodorum (LEPTNO); assay type: cell-based; settings: Leptosphaeria, read-out: LEPTNO in vitro Growth Inhibition
[3] = tested on: Phytophthora infestans—PHYTIN; experiment: whole plant or invertebrate; assay type: in vivo; settings: Phytophthora, in Solanum lycopersicum, 24 h, read-out: PHYTIN in vivo 1 Day Protectant
[4] = tested on: Phytophthora infestans (PHYTIN); experiment: microbe, parasite or virus in culture; assay type: cell-based; settings: Phytophthora infestans, read-out: PHYTIN in vitro Growth Inhibition
Ustilago maydis (USTIMA) = experiment: microbe, parasite or virus in culture; assay type: cell-based; settings: Mycosarcoma maydis, read-out: USTIMA in vitro Growth Inhibition
[5] = tested on: Mycosphaerella graminicola (Septoria tritici—SEPTTR); experiment: In vitro fungal growth inhibition, Mycosphaerella graminicola (SEPTTR); assay type: cell-based; settings: Zymoseptoria tritici, read-out: SEPTTR in vitro Growth Inhibition
Erysiphe graminis—ERYSGT = experiment: Powdery Mildew of Wheat, in vivo whole plant, 24 Hour Protectant; settings: Erysiphe, control of fungal infection vs untreated plants, read-out: ERYSGT in vivo 1 Day Protectant
[6] = tested on: Rhizoctonia solani (RHIZSO); experiment: microbe, parasite or virus in culture; assay type: cell-based; settings: Rhizoctonia solani, read-out: RHIZSO in vitro Growth Inhibition
[7] = tested on: Magnaporthe grisea (Pyricularia oryzae—PYRIOR); experiment: microbe, parasite or virus in culture; assay type: cell-based; settings: Pyricularia oryzae, read-out: PYRIOR in vitro Growth Inhibition
[8] = tested on: Puccinia recondita—PUCCRT; experiment: Brown Rust of Wheat, in vivo whole plant, 24 Hour Protectant; settings: Puccinia, control of fungal infection vs untreated plants, read-out: PUCCRT in vivo 1 Day Protectant
Septoria tritici—SEPTTR = experiment: Leaf Blotch of Wheat, in vivo whole plant, 24 Hour Protectant; settings: Zymoseptoria tritici, 24 h, control of fungal infection vs untreated plants, read-out: SEPTTR in vivo 1 Day Protectant
[9] = 100 ppm spray, wheat, 24 hour protectant
[10] = wheat plants sprayed at 100 ppm, inoculated after 24 hours

Row | Structure (SMILES) | pest or weed control at 100 ppm [1, 9] [%] | inhibition at 25 ppm ([2]; 25 ppm in growth medium) [%] | pest or weed control at 100 ppm [3] [%] | inhibition at 25 ppm [4] [%] | inhibition at 25 ppm (Ustilago maydis (USTIMA)) [%] | inhibition at 25 ppm ([5]; 25 ppm in growth medium) [%] | pest or weed control at 100 ppm (Erysiphe graminis—ERYSGT; [9]) [%] | inhibition at 25 ppm [6] [%] | melting point | inhibition at 25 ppm [7] [%] | pest or weed control at 100 ppm [8, 9] [%] | pest or weed control at 100 ppm (Septoria tritici—SEPTTR; [9]) [%] | LEPTNO in vivo 1 Day Protectant [1, 9] | pest or weed control at 100 ppm [1, 10] [%] | inhibition at 25 ppm ([2]; 25 ppm in the growth medium) [%] | inhibition at 25 ppm ([5]; 25 ppm in the growth medium) [%] | pest or weed control at 100 ppm (Erysiphe graminis—ERYSGT; [10]) [%] | pest or weed control at 100 ppm [8, 10] [%] | pest or weed control at 100 ppm (Septoria tritici—SEPTTR; [10]) [%]
1 | COc1ccnc(C(=O)Nc2ccc(Cc3cccc(C(F)(F)F)c3)cc2)c1O [Compound 404] | 25 to 74 | < 80 | < 25 | < 80 | > 80 | < 80 | 25 to 74 | < 80 | 126 to 127 °C | < 80 | 25 to 74 | 25 to 74 |  |  |  |  |  |  | 
2 | COc1ccnc(C(=O)Nc2ccc(Nc3cccc(C(F)(F)F)c3)cc2)c1O [Compound 410] | 25 to 74 | < 80 | < 25 | < 80 | < 80 | < 80 | < 25 | < 80 | 204 to 205 °C | < 80 | < 25 | < 25 |  |  |  |  |  |  | 
3 | COCc1cc(Oc2ccc(C(F)(F)F)cc2)ccc1NC(=O)c1nccc(OC)c1O [Compound 426] | < 25 | > 80 | 25 to 74 | > 80 | > 80 | > 80 | 25 to 74 | > 80 | 125 to 127 °C | > 80 | 25 to 74 | 25 to 74 |  |  |  |  |  |  | 
4 | CCOC(=O)c1cc(Oc2ccc(C(F)(F)F)cc2)ccc1NC(=O)c1nccc(OC)c1O [Compound 427] | 25 to 74 | < 80 | < 25 | < 80 | < 80 | < 80 | < 25 | < 80 | 145 to 147 °C | < 80 | 25 to 74 | 25 to 74 |  |  |  |  |  |  | 
5 | COc1ccnc(C(=O)Nc2ccc(Oc3ccc(OC(=O)C(C)C)cc3)cc2)c1O [Compound 436] | 25 to 74 | < 80 | < 25 | < 80 | < 80 | < 80 | < 25 | < 80 | 109 to 110.5 °C | < 80 | < 25 | 25 to 74 |  |  |  |  |  |  | 
6 | COc1ccnc(C(=O)Nc2cccc(Sc3ccc(C(F)(F)F)cc3)c2)c1O [Compound 444] | 25 to 74 | < 80 | < 25 | < 80 | < 80 | < 80 | < 25 | < 80 | 133 to 134 °C | < 80 | 25 to 74 | 25 to 74 |  |  |  |  |  |  | 
7 | COc1ccnc(C(=O)Nc2ccc(Sc3cccc(C(F)(F)F)c3)cc2)c1O [Compound 445] |  | < 80 | < 25 | < 80 | > 80 | > 80 | 25 to 74 | < 80 | 167 to 169 °C | > 80 | 25 to 74 | 25 to 74 | + + |  |  |  |  |  | 
8 | COc1ccnc(C(=O)Nc2cccc(C(=O)Nc3ccc(C(F)(F)F)cc3)c2)c1O [Compound 450] | 25 to 74 | < 80 | < 25 | < 80 | < 80 | < 80 | < 25 | < 80 | > 260 °C | < 80 | < 25 | 25 to 74 |  |  |  |  |  |  | 
9 | COc1ccnc(C(=O)Nc2ccc(C(=O)Oc3cccc(C(F)(F)F)c3)cc2)c1O [Compound 451] | 25 to 74 | < 80 | < 25 | < 80 | < 80 | < 80 | < 25 | < 80 | 196 °C (dec.) | > 80 | 25 to 74 | < 25 |  |  |  |  |  |  | 
10 | COc1ccnc(C(=O)Nc2ccc(NC(=O)c3cccc(C(F)(F)F)c3)cc2)c1O [Compound 453] | 25 to 74 | < 80 | < 25 | < 80 | < 80 | < 80 | < 25 | < 80 | 240 to 242 °C | < 80 | < 25 | 25 to 74 |  |  |  |  |  |  | 
11 | COc1ccnc(C(=O)Nc2cccc(NC(=O)c3ccc(C(F)(F)F)cc3)c2)c1O [Compound 454] | 25 to 74 | < 80 | < 25 | < 80 | < 80 | < 80 | < 25 | < 80 | 240 to 242 °C | < 80 | < 25 | 25 to 74 |  |  |  |  |  |  | 
12 | COc1ccnc(C(=O)Nc2ccc(OC3CC(C)(C)CC(C)(C)C3)cc2)c1O [Compound 458] |  | > 80 | < 25 | < 80 | < 80 | < 80 | < 25 | < 80 | 141 to 142 °C | < 80 | 25 to 74 | < 25 | + + |  |  |  |  |  | 
13 | COc1ccnc(C(=O)Nc2ccc(OC3CC(C)(C)OC(C)(C)C3)cc2)c1O [Compound 459] |  | < 80 | < 25 | < 80 | < 80 | < 80 | 25 to 74 | < 80 | 161 to 163 °C | < 80 | 25 to 74 | 25 to 74 | + + |  |  |  |  |  | 
14 | COc1ccnc(C(=O)Nc2cccc(OC3CC(C)(C)OC(C)(C)C3)c2)c1O [Compound 460] | 25 to 74 | < 80 | < 25 | < 80 | < 80 | < 80 | 25 to 74 | < 80 | 149 to 153 °C | < 80 | 25 to 74 | 25 to 74 |  |  |  |  |  |  | 
15 | COc1ccnc(C(=O)Nc2ccc(Oc3cc(C(F)(F)F)ccn3)cc2)c1O [Compound 461] |  |  | < 25 | < 80 | < 80 |  |  | < 80 | 169 to 171 °C | < 80 |  |  |  | 25 to 74 | < 80 | < 80 | < 25 | 25 to 74 | 25 to 74
16 | COc1ccnc(C(=O)Nc2ccc(Oc3ccc(C(F)(F)F)cn3)cc2)c1O [Compound 462] |  |  | < 25 | < 80 | < 80 |  |  | < 80 | 141 to 143 °C | > 80 |  |  |  | 25 to 74 | < 80 | > 80 | < 25 | 25 to 74 | 25 to 74
